Here are results for four compounds from ChEMBL document CHEMBL1144896 (2003).

Assay type in all cases: functional
The test system of assay [1] is BJ. In words: hTERT-SEAP (Human telomerase reverse transcriptase-SEAP) activity in immortalized hTERT-BJI at 19 uM concentration and level of cell viability determined in MTT assay. In general terms: Tetrazolium assays rely on reduction of a dye to a coloured formazan, in cell work by metabolically active cells.
The test system of assay [2] is BJ. Kind of assay: Compound was tested for human telomerase reverse transcriptase-SEAP (hTERT-SEAP) activity in immortalized hTERT-BJI at 19 uM concentration.
The test system of assay [3] is NCI-H1299. Kind of assay: hTERT-SEAP (Human telomerase reverse transcriptase-SEAP) activity in non-small cell lung cancer H1299 cell at 190.0 uM concentration and level of cell viability determined in MTT assay.
The test system of assay [4] is NCI-H1299. In words: hTERT-SEAP (Human telomerase reverse transcriptase-SEAP) activity in non-small cell lung cancer H1299 cell at 19 uM concentration and level of cell viability determined in MTT assay.
Assay [5] concerns NCI-H1299. Kind of assay: Compound was tested for human telomerase reverse transcriptase-SEAP (hTERT-SEAP) activity in non-small cell lung cancer H1299 cell at 19 uM concentration.
Assay [6] concerns NCI-H1299. Kind of assay: hTERT-SEAP (Human telomerase reverse transcriptase-SEAP) activity in non-small cell lung cancer H1299 cell at 1.9 uM concentration and level of cell viability determined in MTT assay.
The subject of assay [7] is BJ. In words: hTERT-SEAP (Human telomerase reverse transcriptase-SEAP) activity in immortalized hTERT-BJI at 190.0 uM concentration and level of cell viability determined in MTT assay.
The subject of assay [8] is BJ. In words: Compound was tested for human telomerase reverse transcriptase-SEAP (hTERT-SEAP) activity in immortalized hTERT-BJI at 190.0 uM concentration.
In assay [9] the test system is NCI-H1299. Kind of assay: Compound was tested for human telomerase reverse transcriptase-SEAP (hTERT-SEAP) activity in non-small cell lung cancer H1299 cell at 190.0 uM concentration.
For assay [10], the system named is NCI-H1299. In words: Compound was tested for human telomerase reverse transcriptase-SEAP (hTERT-SEAP) activity in non-small cell lung cancer H1299 cell at 1.9 uM concentration.
Assay [11] deals with NCI-H1299. In words: Compound was tested for human telomerase reverse transcriptase-SEAP (hTERT-SEAP) activity in non-small cell lung cancer H1299 cell at 280.0 uM concentration.
For assay [12], the system named is NCI-H1299. In words: hTERT-SEAP (Human telomerase reverse transcriptase-SEAP) activity in non-small cell lung cancer H1299 cell at 2.8 uM concentration and level of cell viability determined in MTT assay.
The test system of assay [13] is BJ. Kind of assay: hTERT-SEAP (Human telomerase reverse transcriptase-SEAP) activity in immortalized hTERT-BJI at 280.0 uM concentration and level of cell viability determined in MTT assay.
Assay [14] deals with NCI-H1299. Kind of assay: hTERT-SEAP (Human telomerase reverse transcriptase-SEAP) activity in non-small cell lung cancer H1299 cell at 28 uM concentration and level of cell viability determined in MTT assay.
For assay [15], the system named is BJ. Kind of assay: hTERT-SEAP (Human telomerase reverse transcriptase-SEAP) activity in immortalized hTERT-BJI at 2.8 uM concentration and level of cell viability determined in MTT assay.
Assay [16] has as its system BJ. Kind of assay: Compound was tested for human telomerase reverse transcriptase-SEAP (hTERT-SEAP) activity in immortalized hTERT-BJI at 280.0 uM concentration.
For assay [17], the system named is NCI-H1299. Kind of assay: Compound was tested for human telomerase reverse transcriptase-SEAP (hTERT-SEAP) activity in non-small cell lung cancer H1299 cell at 2.8 uM concentration.
Assay [18] has as its system BJ. Kind of assay: Compound was tested for human telomerase reverse transcriptase-SEAP (hTERT-SEAP) activity in immortalized hTERT-BJI at 28.0 uM concentration.
Assay [19] has as its system NCI-H1299. Kind of assay: Compound was tested for human telomerase reverse transcriptase-SEAP (hTERT-SEAP) activity in non-small cell lung cancer H1299 cell at 28.0 uM concentration.
In assay [20] the test system is BJ. Kind of assay: hTERT-SEAP (Human telomerase reverse transcriptase-SEAP) activity in immortalized hTERT-BJI at 28.0 uM concentration and level of cell viability determined in MTT assay.
Assay [21] deals with NCI-H1299. In words: hTERT-SEAP (Human telomerase reverse transcriptase-SEAP) activity in non-small cell lung cancer H1299 cell at 280.0 uM concentration and level of cell viability determined in MTT assay.
For assay [22], the system named is BJ. Kind of assay: Compound was tested for human telomerase reverse transcriptase-SEAP (hTERT-SEAP) activity in immortalized hTERT-BJI at 2.8 uM concentration.

As for `O=C(Oc1cccc2c1C(=O)c1cccc(OC(=O)c3cccc(Cl)c3)c1C2=O)c1cccc(Cl)c1`, the Relative viability with BJ [1] came to 80%; in the assay with NCI-H1299 [3], 46%; with NCI-H1299 [4], 88%; in the assay on NCI-H1299 [6], 98%; in the assay on BJ [7], 44%. Further, the “Relative SEAP activity” value in the assay on BJ [2] stood at 152%; in the assay on NCI-H1299 [5], 92%; in the assay on BJ [8] it was 91%; in the assay with NCI-H1299 [9] it was 81%; in the assay on NCI-H1299 [10] it was 83%.
Take `O=C1c2cccc(SCCO)c2C(=O)c2cccc(SCCO)c21`: the “Relative SEAP activity” value was 45% with NCI-H1299 [11]; 71% with BJ [16]; 97% with NCI-H1299 [17]; 98% in the assay with BJ [18]; 76% in the assay with NCI-H1299 [19]; 104% in the assay with BJ [22]. Also, the Relative viability with NCI-H1299 [12] turned out to be 54%; with BJ [13], 23%; in the assay with NCI-H1299 [14], 29%; with BJ [15], 94%; in the assay on BJ [20], 49%; in the assay on NCI-H1299 [21] it was 36%.
With `O=C(Oc1cccc2c1C(=O)c1cccc(OC(=O)c3ccccc3Cl)c1C2=O)c1ccccc1Cl`, the Relative viability in the assay with BJ [1] is 92%; with NCI-H1299 [3], 30%; in the assay with NCI-H1299 [4], 34%; in the assay with NCI-H1299 [6], 74%; with BJ [7], 40%. Besides, the “Relative SEAP activity” value in the assay on BJ [2] stood at 116%; in the assay with NCI-H1299 [5], 101%; in the assay with BJ [8] it was 97%; with NCI-H1299 [9], 97%; with NCI-H1299 [10] it was 93%.
In the case of `O=C(Oc1cccc2c1C(=O)c1cccc(OC(=O)c3ccc(Cl)cc3)c1C2=O)c1ccc(Cl)cc1`, the Relative viability was 89% in the assay with BJ [1]; 31% in the assay on NCI-H1299 [3]; 57% in the assay with NCI-H1299 [4]; 91% with NCI-H1299 [6]; 48% in the assay with BJ [7]. Besides, the “Relative SEAP activity” value was determined as 123% with BJ [2]; 106% in the assay on NCI-H1299 [5]; 107% in the assay with BJ [8]; 97% in the assay with NCI-H1299 [9]; 106% in the assay with NCI-H1299 [10].
